In assay [1] the target is T1, chlorite dismutase (Cld) (Dechloromonas aromatica (nom. nud.), UniProt Q47CX0). Kind of assay: X-ray co-crystal structure. The assay is classed as binding.
The target of assay [2] is T1, chlorite dismutase (Cld). Kind of assay: biochemical.

Molecules are shown by their SMILES.

T1 sequence (Q47CX0 35-282): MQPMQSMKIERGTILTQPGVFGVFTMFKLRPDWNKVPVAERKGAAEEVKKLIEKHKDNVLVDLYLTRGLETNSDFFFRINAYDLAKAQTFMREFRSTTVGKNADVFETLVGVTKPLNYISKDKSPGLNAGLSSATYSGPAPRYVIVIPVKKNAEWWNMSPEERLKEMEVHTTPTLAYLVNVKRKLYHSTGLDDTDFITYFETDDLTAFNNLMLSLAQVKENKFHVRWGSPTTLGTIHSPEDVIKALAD

On to `O=NO` [nitrite], for which, on chlorite dismutase (Cld) [1], the Kd (usually a measure of binding affinity in units of concentration) is 1.12 mM.

On to `CC(=O)O` [acetate], for which the Kd at chlorite dismutase (Cld) [2] is 36 mM.

(Values after publication PMC2909366 (Journal of biological inorganic chemistry : JBIC : a …, 2010).)
